test system: not listed separately; experiment: Cytotoxicity against rat FRTL5 cells assessed as effect on cell growth at 1 uM measured at 24 hrs by MTT assay; format: cell-based; settings: frtl-5, 24 h

SMILES | Activity
CCCCCC1=C(C(=O)OCc2ccc(OC)cc2)C(c2ccccc2)NC(=O)N1 (centres undefined) | Non-Toxic
COc1ccc(COC(=O)C2=C(CNC(=O)c3ccccc3)NC(=O)NC2c2ccccc2)cc1 (centres undefined) | Non-Toxic
COc1ccc(COC(=O)C2=C(C)N(C)C(=O)N(C)C2c2ccco2)cc1OC (centres undefined) | Non-Toxic
CC1=C(C(=O)OCc2ccccc2C)C(c2ccccc2)NC(=O)N1 (centres undefined) | Non-Toxic
COc1ccc(COC(=O)C2=C(C)N(C)C(=O)N(C)C2c2ccco2)cc1 (centres undefined) | Non-Toxic
COc1ccc(COC(=O)C2=C(C)NC(=O)NC2c2ccco2)cc1 (centres undefined) | Non-Toxic
COc1ccc(COC(=O)C2=C(C)NC(=O)NC2c2ccccc2F)cc1 (centres undefined) | Non-Toxic
COc1ccc(COC(=O)C2=C(Cc3ccccc3)NC(=O)NC2c2ccccc2)cc1 (centres undefined) | Non-Toxic
COc1ccc(COC(=O)C2=C(C)NC(=O)NC2c2cccc(Br)c2)cc1 (centres undefined) | Non-Toxic
CC1=C(C(=O)OCc2ccc3c(c2)OCO3)C(c2ccoc2)NC(=O)N1 (centres undefined) | Non-Toxic
COc1cccc(COC(=O)C2=C(C)NC(=O)NC2c2ccco2)c1 (centres undefined) | Non-Toxic
CC1=C(C(=O)OCc2ccccc2Cl)C(c2ccccc2)NC(=O)N1 (centres undefined) | Non-Toxic
COc1ccc(COC(=O)C2=C(CC(C)C)NC(=O)NC2c2ccccc2)cc1 (centres undefined) | Non-Toxic
CC1=C(C(=O)NCc2ccc3c(c2)OCO3)C(c2ccccc2)NC(=O)N1 (centres undefined) | Non-Toxic
COc1ccc(COC(=O)C2=C(C)NC(=O)NC2c2cccc(F)c2)cc1 (centres undefined) | Non-Toxic
CC1=C(C(=O)OCc2ccc(Cl)cc2)C(c2ccccc2)NC(=O)N1 (centres undefined) | Non-Toxic
COc1ccc(COC(=O)C2=C(C)N(C)C(=O)NC2c2ccco2)cc1 (centres undefined) | Non-Toxic
COc1ccc(COC(=O)C2=C(C)NC(=O)NC2c2ccc(C)o2)cc1 (centres undefined) | Non-Toxic
CC1=C(C(=O)OCc2ccc3c(c2)OCO3)C(c2ccco2)N(C)C(=O)N1C (centres undefined) | Non-Toxic
COc1cccc(COC(=O)C2=C(C)N(C)C(=O)NC2c2ccco2)c1 (centres undefined) | Non-Toxic
CC1=C(C(=O)OCc2ccc(F)cc2)C(c2ccccc2)NC(=O)N1 (centres undefined) | Non-Toxic

SMILES | Activity
COc1ccc(COC(=O)C2=C(c3cccs3)NC(=O)NC2c2ccccc2)cc1 (centres undefined) | Non-Toxic
COc1ccc(COC(=O)C2=C(C)NC(=O)NC2c2ccoc2)cc1 (centres undefined) | Non-Toxic
CCC1=C(C(=O)OCc2ccc(OC)cc2)C(c2ccccc2)NC(=O)N1 (centres undefined) | Non-Toxic
COc1ccc(COC(=O)C2=C(C)NC(=S)NC2c2ccccc2)cc1 (centres undefined) | Non-Toxic
COc1cccc(COC(=O)C2=C(C)NC(=O)NC2c2ccccc2)c1 (centres undefined) | Non-Toxic
CC1=C(C(=O)OCc2ccc3c(c2)OCO3)C(c2ccco2)NC(=O)N1 (centres undefined) | Non-Toxic
COc1ccc(COC(=O)C2=C(C)NC(=O)NC2C2CC2)cc1 (centres undefined) | Non-Toxic
COc1ccc(COC(=O)C2=C(C3CCCCC3)NC(=O)NC2c2ccccc2)cc1 (centres undefined) | Non-Toxic
CC1=C(C(=O)OCc2ccc3c(c2)OCO3)C(c2ccccc2)NC(=O)N1 (centres undefined) | Non-Toxic
CC1=C(C(=O)OCc2ccc3c(c2)OCO3)C(c2ccco2)NC(=O)N1C (centres undefined) | Non-Toxic
COc1ccc(COC(=O)C2=C(C)NC(=O)NC2c2cccs2)cc1 (centres undefined) | Non-Toxic
COc1ccc(COC(=O)C2=C(C)N(C)C(=O)NC2c2ccccc2)cc1 (centres undefined) | Non-Toxic
COc1ccc(COC(=O)C2=C(c3ccccc3)NC(=O)NC2c2ccccc2)cc1 (centres undefined) | Non-Toxic
CC1=C(C(=O)OCc2ccccc2)C(c2ccccc2)NC(=O)N1 (centres undefined) | Non-Toxic
COc1ccc(COC(=O)C2=C(COc3ccccc3)NC(=O)NC2c2ccccc2)cc1 (centres undefined) | Non-Toxic
COc1ccc(COC(=O)C2=C(C)NC(=O)NC2c2ccc(F)cc2)cc1 (centres undefined) | Non-Toxic
COc1ccc(COC(=O)C2=C(C)NC(=O)NC2c2cccc(Cl)c2)cc1 (centres undefined) | Non-Toxic
COc1ccc(COC(=O)C2=C(C)N(C)C(=O)N(C)C2c2ccccc2)cc1 (centres undefined) | Non-Toxic
COc1ccc(COC(=O)C2=C(Cc3cccs3)NC(=O)NC2c2ccccc2)cc1 (centres undefined) | Non-Toxic
COc1ccc(COC(=O)C2=C(C)NC(=O)NC2c2ccsc2)cc1 (centres undefined) | Non-Toxic
COc1cccc(COC(=O)C2=C(C)N(C)C(=O)N(C)C2c2ccco2)c1 (centres undefined) | Non-Toxic

biological target: T1, Sodium/iodide cotransporter (Rattus norvegicus, UniProt Q63008); experiment: Inhibition of sodium iodide symporter in rat FRTL5 cells assessed as inhibition of iodide uptake using Na125I after 60 mins by scintillation counting method; format: cell-based, FRTL-5; settings: not given
T1 sequence (Q63008 whole entry): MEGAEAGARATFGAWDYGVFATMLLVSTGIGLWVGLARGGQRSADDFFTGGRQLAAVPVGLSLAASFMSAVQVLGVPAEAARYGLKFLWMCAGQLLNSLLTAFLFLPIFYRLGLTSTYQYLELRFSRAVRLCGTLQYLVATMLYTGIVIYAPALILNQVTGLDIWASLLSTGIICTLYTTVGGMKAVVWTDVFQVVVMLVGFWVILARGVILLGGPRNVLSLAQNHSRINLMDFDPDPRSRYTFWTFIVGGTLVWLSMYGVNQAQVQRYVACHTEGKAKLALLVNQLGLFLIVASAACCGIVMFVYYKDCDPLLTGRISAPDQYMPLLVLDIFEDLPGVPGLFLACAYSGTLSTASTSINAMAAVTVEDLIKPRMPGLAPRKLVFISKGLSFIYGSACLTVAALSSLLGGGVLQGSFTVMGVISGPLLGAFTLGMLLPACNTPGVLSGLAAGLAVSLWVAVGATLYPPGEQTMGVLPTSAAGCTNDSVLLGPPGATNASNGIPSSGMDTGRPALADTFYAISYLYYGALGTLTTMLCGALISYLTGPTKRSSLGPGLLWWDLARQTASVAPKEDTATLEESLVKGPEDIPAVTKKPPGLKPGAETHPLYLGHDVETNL

IC50 | SMILES
400 nM | COc1ccc(COC(=O)C2=C(C)NC(=O)NC2c2ccccc2)cc1 (centres undefined)

biological target: T1, Sodium/iodide cotransporter; experiment: Inhibition of sodium iodide symporter in rat FRTL5 cells assessed as inhibition of iodide uptake using NaI/Na125I after 45 mins by scintillation counting method; format: cell-based, FRTL-5; settings: not given

IC50 | SMILES
400 nM | F[B-](F)(F)c1ccc(OCc2ccccc2)cc1
